# Experiments:
# Assay in all cases: Anti-microbial activity test in vitro (agar dilution MIC)
# [1] = system: CRSA C6043; format: cell-based, Staphylococcus aureus; conditions: CRSA C6043; Agar Dilution method, Mueller Hinton Agar, 18 hours at 37° C.
# Method: (§1) Anti-microbial activity test in vitro
# (§2) Strains were cultivated for 18 hours at 37° C. in Agar Dilution method using Mueller Hinton Agar, and then plane plates inoculated with the strains by diluting them two times gradually were aligned in a row. Minimum inhibition concentration (MIC, μg/ml) for the representative compounds of the present invention, Linezolid (LZD) and vancomycin (VAN) were decided through visual observation, and the results are shown in the following tables 2 and 3.
# [2] = system: CRSA C1062; format: cell-based, Staphylococcus aureus; conditions: CRSA C1062; Agar Dilution method, Mueller Hinton Agar, 18 hours at 37° C.
# Method: as §1, §2
# [3] = system: MRSA C2207; format: cell-based, Staphylococcus aureus; conditions: MRSA C2207; Agar Dilution method, Mueller Hinton Agar, 18 hours at 37° C.
# Method: as §1, §2
# [4] = system: MRSA C6068; format: cell-based, Staphylococcus aureus; conditions: MRSA C6068; Agar Dilution method, Mueller Hinton Agar, 18 hours at 37° C.
# Method: as §1, §2
# [5] = system: MRSA C5100; format: cell-based, Staphylococcus aureus; conditions: MRSA C5100; Agar Dilution method, Mueller Hinton Agar, 18 hours at 37° C.
# Method: as §1, §2
# [6] = system: MSSA C7142; format: cell-based, Staphylococcus aureus; conditions: MSSA C7142; Agar Dilution method, Mueller Hinton Agar, 18 hours at 37° C.
# Method: as §1, §2
# [7] = system: MSSA C2214; format: cell-based, Staphylococcus aureus; conditions: MSSA C2214; Agar Dilution method, Mueller Hinton Agar, 18 hours at 37° C.
# Method: as §1, §2
# [8] = system: VRE C6488; format: cell-based, Enterococcus faecium; conditions: VRE C6488; Agar Dilution method, Mueller Hinton Agar, 18 hours at 37° C.
# Method: as §1, §2
# [9] = system: VRE C6487; format: cell-based, Enterococcus faecium; conditions: VRE C6487; Agar Dilution method, Mueller Hinton Agar, 18 hours at 37° C.
# Method: as §1, §2
# [10] = system: E. faecium C2252; format: cell-based; conditions: E. faecium C2252; Agar Dilution method, Mueller Hinton Agar, 18 hours at 37° C.
# Method: as §1, §2
# [11] = system: S. epidermidis C2235; format: cell-based; conditions: S. epidermidis C2235; Agar Dilution method, Mueller Hinton Agar, 18 hours at 37° C.
# Method: as §1, §2
# [12] = system: E. faecalis C6291; format: cell-based; conditions: E. faecalis C6291; Agar Dilution method, Mueller Hinton Agar, 18 hours at 37° C.
# Method: as §1, §2
# [13] = system: S. pyogenes C6003; format: cell-based; conditions: S. pyogenes C6003; Agar Dilution method, Mueller Hinton Agar, 18 hours at 37° C.
# Method: as §1, §2
# [14] = system: E. faecium C6301; format: cell-based; conditions: E. faecium C6301; Agar Dilution method, Mueller Hinton Agar, 18 hours at 37° C.
# Method: as §1, §2
# [15] = system: S. aureus ATCC 29213; format: cell-based; conditions: Agar Dilution method, Mueller Hinton Agar, 18 hours at 37° C.
# Method: as §1, §2
# [16] = system: S. pyogenes ATCC8668; format: cell-based; conditions: S. pyogenes ATCC8668; Agar Dilution method, Mueller Hinton Agar, 18 hours at 37° C.
# Method: as §1, §2
# [17] = system: S. epidermidis ATCC12228; format: cell-based; conditions: S. epidermidis ATCC12228; Agar Dilution method, Mueller Hinton Agar, 18 hours at 37° C.
# Method: as §1, §2
# [18] = system: E. faecalis ATCC29212; format: cell-based; conditions: E. faecalis ATCC29212; Agar Dilution method, Mueller Hinton Agar, 18 hours at 37° C.
# Method: as §1, §2
# [19] = system: E. faecalis C6288; format: cell-based; conditions: E. faecalis C6288; Agar Dilution method, Mueller Hinton Agar, 18 hours at 37° C.
# Method: as §1, §2
# [20] = system: S. pyogenes C6012; format: cell-based; conditions: S. pyogenes C6012; Agar Dilution method, Mueller Hinton Agar, 18 hours at 37° C.
# Method: as §1, §2
# [21] = system: S. epidermidis C2230; format: cell-based; conditions: S. epidermidis C2230; Agar Dilution method, Mueller Hinton Agar, 18 hours at 37° C.
# Method: as §1, §2
Minimum inhibition concentration (MIC) [1] [µg/mL],Minimum inhibition concentration (MIC) [2] [µg/mL],Minimum inhibition concentration (MIC) [3] [µg/mL],Minimum inhibition concentration (MIC) [4] [µg/mL],Minimum inhibition concentration (MIC) [5] [µg/mL],Minimum inhibition concentration (MIC) [6] [µg/mL],Minimum inhibition concentration (MIC) [7] [µg/mL],Minimum inhibition concentration (MIC) [8] [µg/mL],Minimum inhibition concentration (MIC) [9] [µg/mL],Minimum inhibition concentration (MIC) [10] [µg/mL],Minimum inhibition concentration (MIC) [11] [µg/mL],Minimum inhibition concentration (MIC) [12] [µg/mL],Minimum inhibition concentration (MIC) [13] [µg/mL],Minimum inhibition concentration (MIC) [14] [µg/mL],Minimum inhibition concentration (MIC) [15] [µg/mL],Minimum inhibition concentration (MIC) [16] [µg/mL],Minimum inhibition concentration (MIC) [17] [µg/mL],Minimum inhibition concentration (MIC) [18] [µg/mL],Minimum inhibition concentration (MIC) [19] [µg/mL],Minimum inhibition concentration (MIC) [20] [µg/mL],Structure (SMILES),further results
8,16,16,4,8,16,16,4,4,4,4,8,8,4,8,2,2,8,4,2,"CC(=O)NC[C@H]1CN(c2ccc(N3CCC(=CC(C)O)CC3)c(F)c2)C(=O)O1 (stereo partly drawn) [Compound 22, N-[[(5S)-3-[3-fluoro-4-(4-(2-hydroxypropylidene)-piperidinyl)-phenyl]-2-oxo-5-oxazolidinyl]methyl]acetamide]",Minimum inhibition concentration (MIC) [21]: 4 µg/mL
8,8,8,8,8,16,16,8,8,8,4,8,8,8,16,2,2,8,8,2,"CCOC(=O)C=C1CCN(c2ccc(N3C[C@H](CNC(C)=O)OC3=O)cc2F)CC1 [Compound 11, N-[[(5S)-3-[3-fluoro-4-(4-ethoxycarbonylmethylidene-piperidinyl)phenyl]-2-oxo-5-oxazolidinyl]methyl]acetamide]",Minimum inhibition concentration (MIC) [21]: 8 µg/mL
4,8,4,4,4,4,8,8,8,8,2,8,8,4,8,2,1,16,4,1,"CC(=O)NC[C@H]1CN(c2ccc(N3CCC(=CC=O)CC3)c(F)c2)C(=O)O1 [Compound 17, N-[[(5S)-3-[3-fluoro-4-(4-(2-oxoethylidene)piperidinyl)-phenyl]-2-oxo-5-oxazolidinyl]methyl]acetamide]",Minimum inhibition concentration (MIC) [21]: 2 µg/mL

Structure (SMILES),Minimum inhibition concentration (MIC) [1] [µg/mL],Minimum inhibition concentration (MIC) [2] [µg/mL],Minimum inhibition concentration (MIC) [3] [µg/mL],Minimum inhibition concentration (MIC) [4] [µg/mL],Minimum inhibition concentration (MIC) [5] [µg/mL],Minimum inhibition concentration (MIC) [6] [µg/mL],Minimum inhibition concentration (MIC) [7] [µg/mL],Minimum inhibition concentration (MIC) [8] [µg/mL],Minimum inhibition concentration (MIC) [9] [µg/mL],Minimum inhibition concentration (MIC) [10] [µg/mL],Minimum inhibition concentration (MIC) [11] [µg/mL],Minimum inhibition concentration (MIC) [12] [µg/mL],Minimum inhibition concentration (MIC) [13] [µg/mL],Minimum inhibition concentration (MIC) [14] [µg/mL],Minimum inhibition concentration (MIC) [15] [µg/mL],Minimum inhibition concentration (MIC) [16] [µg/mL],Minimum inhibition concentration (MIC) [17] [µg/mL],Minimum inhibition concentration (MIC) [18] [µg/mL],Minimum inhibition concentration (MIC) [19] [µg/mL],Minimum inhibition concentration (MIC) [20] [µg/mL],further results
"CC(=O)NC[C@H]1CN(c2ccc(N3CCC(=CC(C)OC(=O)C(Cl)Cl)CC3)c(F)c2)C(=O)O1 (stereo partly drawn) [Compound 25, N-[[(5S)-3-[3-fluoro-4-(4-(2-(dichloroacetoxy)propylidene)-piperidinyl)-phenyl]-2-oxo-5-oxazolidinyl]methyl]acetamide]",16,16,16,8,8,16,16,4,4,8,8,8,8,8,16,2,2,8,8,2,Minimum inhibition concentration (MIC) [21]: 8 µg/mL
"CC(=O)NC[C@H]1CN(c2ccc(N3CCC(=CC(C)=NO)CC3)c(F)c2)C(=O)O1 [Compound 20, N-[[(5S)-3-[3-fluoro-4-(4-(2-hydroxyiminopropylidene)-piperidinyl)phenyl]-2-oxo-5-oxazolidinyl]methyl]acetamide]",8,8,8,4,8,16,8,4,4,4,4,4,4,4,8,1,1,8,4,1,Minimum inhibition concentration (MIC) [21]: 4 µg/mL

# — patent US20040087633A1, “Methylidene oxazolidinone compound and preparation method thereof” (Korea Institute of Science and Technology, priority 2002, published 2004)
